In the supplement of paper PMC10307832:

Experiments:
Test in all cases: relative viability (nuclei count vs DMSO), 5 days (fraction); higher = more cells survive
FH535 + OSI-027 = compound: CC1=C(C=CC(=C1)[N+](=O)[O-])NS(=O)(=O)C2=C(C=CC(=C2)Cl)Cl [FH535] + COc1cccc2cc(-c3nc([C@H]4CC[C@H](C(=O)O)CC4)n4ncnc(N)c34)[nH]c12 [OSI-027] (partner 0.5 µM)
Summary of the method: (§1)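 Medians of duplicate plates are given as relative viability. That measure is the nuclei count in treated wells divided by the count in vehicle wells. Counts were taken on 4× images of lung cancer cell lines in 1536-well plates, 5 days after pin-tool dosing the day after seeding with one drug alone or a fixed anchor-drug dose plus five library-drug doses (not always all listed) in √10 steps.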

FH535 + Phenformin = compound: CC1=C(C=CC(=C1)[N+](=O)[O-])NS(=O)(=O)C2=C(C=CC(=C2)Cl)Cl [FH535] + N=C(N)NC(=N)NCCc1ccccc1 [Phenformin] (partner 250 µM)
Summary of the method: as §1

FH535 + Foretinib = compound: CC1=C(C=CC(=C1)[N+](=O)[O-])NS(=O)(=O)C2=C(C=CC(=C2)Cl)Cl [FH535] + COc1cc2c(Oc3ccc(NC(=O)C4(C(=O)Nc5ccc(F)cc5)CC4)cc3F)ccnc2cc1OCCCN1CCOCC1 [Foretinib] (partner 0.25 µM)
Summary of the method: as §1

FH535 + Alpelisib = compound: CC1=C(C=CC(=C1)[N+](=O)[O-])NS(=O)(=O)C2=C(C=CC(=C2)Cl)Cl [FH535] + Cc1nc(NC(=O)N2CCC[C@H]2C(N)=O)sc1-c1ccnc(C(C)(C)C(F)(F)F)c1 [Alpelisib] (partner 2 µM)
Summary of the method: as §1

FH535 + Crizotinib = compound: CC1=C(C=CC(=C1)[N+](=O)[O-])NS(=O)(=O)C2=C(C=CC(=C2)Cl)Cl [FH535] + C[C@@H](Oc1cc(-c2cnn(C3CCNCC3)c2)cnc1N)c1c(Cl)ccc(F)c1Cl [Crizotinib] (partner 1 µM)
Summary of the method: as §1

Cell Line | relative viability (FH535 + OSI-027; first compound 0.04 µM) | relative viability (FH535 + OSI-027; first compound 0.1265 µM) | relative viability (FH535 + OSI-027; first compound 0.4 µM) | relative viability (FH535 + OSI-027; first compound 1.265 µM) | relative viability (FH535 + Phenformin; first compound 0.04 µM) | relative viability (FH535 + Phenformin; first compound 0.1265 µM) | relative viability (FH535 + Phenformin; first compound 0.4 µM) | relative viability (FH535 + Phenformin; first compound 1.265 µM) | relative viability (FH535 + Foretinib; first compound 0.04 µM) | relative viability (FH535 + Foretinib; first compound 0.1265 µM) | relative viability (FH535 + Foretinib; first compound 0.4 µM) | relative viability (FH535 + Foretinib; first compound 1.265 µM) | relative viability (FH535 + Alpelisib; first compound 0.04 µM) | relative viability (FH535 + Alpelisib; first compound 0.1265 µM) | relative viability (FH535 + Alpelisib; first compound 0.4 µM) | relative viability (FH535 + Alpelisib; first compound 1.265 µM) | relative viability (FH535 + Crizotinib; first compound 0.04 µM) | relative viability (FH535 + Crizotinib; first compound 0.1265 µM) | relative viability (FH535 + Crizotinib; first compound 0.4 µM) | relative viability (FH535 + Crizotinib; first compound 1.265 µM)
201T | 0.728 | 0.484 | 0.719 | 0.538 | 0.402 | 0.45 | 0.397 | 0.321 | 0.987 | 1.15 | 1.11 | 1.02 | 1.02 | 1.01 | 1.02 | 1 | 0.99 | 1.09 | 0.975 | 0.875
A549 | – | – | – | – | 0.175 | 0.159 | 0.116 | 0.043 | 0.947 | 0.981 | 0.853 | 0.722 | 0.842 | 0.754 | 0.72 | 0.705 | 0.749 | 0.783 | 0.631 | 0.41
A-427 | 0.368 | 0.496 | 0.378 | 0.43 | 0.272 | 0.331 | 0.215 | 0.135 | 1.06 | 0.965 | 1.04 | 0.977 | 1.08 | 1.04 | 1.02 | 1.04 | 0.929 | 0.908 | 0.784 | 0.721
ABC-1 | 0.446 | 0.418 | 0.452 | 0.414 | 0.263 | 0.209 | 0.184 | 0.179 | 1.04 | 0.849 | 0.969 | 0.907 | 1.18 | 1.25 | 0.954 | 1.29 | 1.19 | 0.866 | 1.2 | 0.618
BEN | 0.287 | 0.281 | 0.313 | 0.27 | 0.231 | 0.25 | 0.263 | 0.221 | 0.595 | 0.932 | 0.723 | 0.328 | 0.929 | 0.998 | 0.868 | 0.748 | 0.813 | 0.859 | 0.792 | 0.535
CAL-12T | 0.63 | 0.688 | 0.504 | 0.407 | 0.515 | 0.514 | 0.403 | 0.316 | 1.15 | 1.11 | 1.04 | 0.577 | 1.21 | 1.16 | 1.06 | 1.01 | 0.817 | 0.691 | 0.719 | 0.556
COR-L23 | 0.778 | 0.621 | 0.643 | 0.408 | 0.423 | 0.486 | 0.342 | 0.217 | 0.936 | 0.818 | 0.781 | 0.517 | 0.799 | 0.718 | 0.681 | 0.499 | 0.626 | 0.656 | 0.57 | 0.434
COR-L 105 | 0.691 | 0.701 | 0.613 | 0.608 | 0.411 | 0.461 | 0.405 | 0.382 | 0.936 | 1.25 | 0.794 | 1.02 | 1.09 | 1.17 | 0.789 | 0.971 | 0.751 | 0.885 | 0.792 | 0.86
ChaGo-K-1 | 0.479 | 0.596 | 0.507 | 0.432 | 0.462 | 0.554 | 0.428 | 0.384 | 0.916 | 1.05 | 0.967 | 0.722 | – | – | – | – | 1.05 | 1.19 | 1.09 | 0.708
EKVX | 0.676 | 0.778 | 0.618 | 0.618 | 0.238 | 0.223 | 0.173 | 0.153 | 0.792 | 0.629 | 0.744 | 0.587 | 0.825 | 0.976 | 0.823 | 0.75 | 0.824 | 1.07 | 0.998 | 0.609
EMC-BAC-2 | 0.339 | 0.402 | 0.395 | 0.364 | 0.416 | 0.554 | 0.46 | 0.359 | 0.978 | 0.97 | 0.997 | 0.809 | 0.731 | 0.762 | 0.716 | 0.632 | 0.766 | 0.799 | 0.739 | 0.677
EPLC-272H | 0.27 | 0.296 | 0.279 | 0.238 | 0.242 | 0.352 | 0.234 | 0.159 | 0.586 | 0.852 | 0.72 | 0.562 | 0.951 | 0.978 | 1.02 | 0.963 | 0.943 | 1.07 | 0.868 | 0.838
H3255 | 0.564 | 0.583 | 0.648 | 0.505 | 0.31 | 0.423 | 0.374 | 0.32 | 0.817 | 0.803 | 0.794 | 0.496 | 0.468 | 0.805 | 0.705 | 0.633 | 0.896 | 0.806 | 0.853 | 0.705
HARA | 0.41 | 0.441 | 0.418 | 0.427 | 0.398 | 0.368 | 0.269 | 0.205 | 0.814 | 0.969 | 0.88 | 0.477 | 0.785 | 0.817 | 0.817 | 0.561 | 1.06 | 1.08 | 0.929 | 0.52
HCC-15 | 0.554 | 0.631 | 0.574 | 0.463 | 0.432 | 0.443 | 0.343 | 0.213 | 0.988 | 1.06 | 0.965 | 0.639 | 0.864 | 0.819 | 0.85 | 0.646 | 0.798 | 0.819 | 0.747 | 0.52
HCC-44 | 0.494 | 0.458 | 0.407 | 0.321 | 0.242 | 0.191 | 0.125 | 0.176 | – | – | – | – | 0.779 | 0.843 | 0.741 | 0.566 | 0.908 | 0.755 | 0.75 | 0.682
